Test results published in patent US20100144732A1, “PYRIMIDINE KINASE INHIBITORS” (priority 2006, published 2010).

What follows are compounds tested against T1, aurora A kinase (Homo sapiens, UniProt O14965) (assay: Aurora A in vitro kinase assay (ELISA)). Details: 30 μM ATP, 45 minutes.
T1 sequence (O14965 1-403): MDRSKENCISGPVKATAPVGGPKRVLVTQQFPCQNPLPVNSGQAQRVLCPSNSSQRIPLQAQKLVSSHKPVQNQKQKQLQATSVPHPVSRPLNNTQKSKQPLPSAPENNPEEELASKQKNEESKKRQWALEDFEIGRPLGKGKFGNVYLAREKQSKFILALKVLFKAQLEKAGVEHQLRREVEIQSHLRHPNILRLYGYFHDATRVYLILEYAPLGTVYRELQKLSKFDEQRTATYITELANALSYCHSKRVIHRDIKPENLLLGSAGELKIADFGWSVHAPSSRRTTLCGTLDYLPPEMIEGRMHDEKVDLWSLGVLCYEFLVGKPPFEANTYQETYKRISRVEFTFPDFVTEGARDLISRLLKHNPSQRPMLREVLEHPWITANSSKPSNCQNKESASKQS
Assay type: biochemical
Procedure: Kinase activities were measured by Enzyme-Linked Immunosorbent Assay (ELISA): Maxisorp 384-well plates (Nunc) were coated with recombinant fusion protein comprising residues 1-15 of Histone H3 fused to the N-terminus of Glutathione-S-Transferase. Plates were then blocked with a solution of 1 mg/mL I-block (Tropix Inc) in phosphate-buffered saline. Kinase reactions were carried out in the wells of the ELISA plate by combining an appropriate amount of Aur A and B kinases and/or mutants thereof with test compound and 30 μM ATP. The reaction buffer was 1× Kinase Buffer (Cell Signaling Technologies) supplemented with 1 μg/mL I-block. Reactions were stopped after 45 minutes by addition of 25 mM EDTA. After washing, susbstrate phosphorylation was detected by addition of anti-phospho-Histone H3 (Ser 10) 6G3 mAb (Cell Signaling cat #9706) and sheep anti-mouse pAb-HRP (Amersham cat# NA931V), followed by colorimetric development with TMB.
For `CN(C)CCNC(=O)c1ccc(Nc2ncc(Cl)c(Nc3ccccc3NC(=O)C3CC3)n2)cc1` [compound 9], the IC50 was 2.5 nM. `N#Cc1ccc(Nc2ncc(Cl)c(Nc3ccccc3NC(=O)C3CC3)n2)cc1` [compound 32] showed an IC50 of 1.3 nM. `CC(C)(C)C1CCC(NC(=O)c2ccc(Nc3ncc(Cl)c(Nc4ccccc4NC(=O)C4CC4)n3)cc2)CC1` (centres unmarked) [compound 40] was tested, and the IC50 was 12.1 nM. `O=C(Nc1ccccc1Nc1nc(Nc2ccc(C(=O)N3CCC(O)(Cc4ccccc4)CC3)cc2)ncc1Cl)C1CC1` [compound 44] showed an IC50 of 1.8 nM. With `O=C(Nc1ccccc1Nc1nc(Nc2ccc(-n3cccc3)cc2)ncc1Cl)C1CC1` [compound 53] the IC50 was 6.4 nM. `O=C(/C=C/c1ccccc1)Nc1ccccc1Nc1nc(Nc2ccc(N3CCOCC3)cc2)ncc1Cl` [compound 63] gave an IC50 of 4.4 nM. For `O=C(Nc1ccccc1Nc1nc(Nc2ccc(N3CCOCC3)cc2)ncc1Cl)c1ccccc1` [compound 67], the IC50 was 18.1 nM. Compound `O=C(Nc1ccccc1Nc1nc(Nc2ccc(N3CCOCC3)cc2)ncc1Cl)C1CCCCC1` [compound 75] has an IC50 of 14.1 nM. `CC(C)(C)C(=O)Nc1ccccc1Nc1nc(Nc2ccc(N3CCOCC3)cc2)ncc1Cl` [compound 77] was tested, and the IC50 was 4.2 nM. For `O=C(Nc1ccccc1Oc1nc(Nc2ccc(N3CCOCC3)cc2)ncc1Cl)C1CC1` [compound 80], the IC50 was 36.3 nM. Work on `Nc1ccccc1Oc1nc(Nc2ccc(N3CCS(=O)(=O)CC3)cc2)ncc1Cl` [compound 83] yielded an IC50 of 5 nM. `O=C(NC1CC1)c1ccccc1Nc1nc(Nc2ccc(N3CCOCC3)cc2)ncc1Cl` [compound 85] showed an IC50 of 4.3 nM. Work on `O=C(Nc1ccccc1Nc1nc(Nc2ccc(N3CCOCC3)cc2)ncc1F)C1CC1` [compound 111] yielded an IC50 of 5 nM. With `O=C(Nc1ccccc1Nc1nc(Nc2ccc(N3CCOCC3)cc2)ncc1[N+](=O)[O-])C1CC1` [compound 127] the IC50 was 10.2 nM.
